In patent publication US20260053837A1, “NICOTINAMIDE-RIBOSIDE AND PTEROSTILBENE COMBINATIONS TO TREAT OSTEOARTHRITIS” (The Regents of the University of California, priority 2022, published 2026):

Legend:
[1] = system: injury-induced OA model; assay: pain behavior in injury-induced OA model (DMM surgery; Von Frey test, static weight bearing); assay type: in vivo, mice; conditions: NR 400 mg/kg/day, PT 80 mg/kg/day
Experimental: In vivo studies were designed to determine if oral supplementation of NR+PT (5:1) with NR at 400 mg/kg/day (the commonly used dose in animal studies) and PT at 80 mg/kg/day is better than NR alone (400 mg/kg/day) or PT alone (80 mg/kg/day), in limiting cartilage degradation and reducing pain in an injury-induced OA model. […] Because synergistic or additive effect of NR+PT combination was not initially observed, in vitro studies tested the combination of NR and PT at different ratio (NR:PT, 1:1, 2:1, 4:1, 6:1) and different concentrations (based on PT concentration at 25, 50 and 100 uM) on chondrocyte response to IL-1beta. Because IL-1b is known to induce nitric oxide (NO) production in chondrocytes, NO release (measured from the conditioned media) was used as a readout. It was determined that NR+PT at 2:1 ratio had the best efficacy in inhibition of IL-1b induced NO release, particularly for NR at 0.1 mM and PT at 0.05 mM. […] See, FIGS. 1 and 2. C57BL/6J mice at 12 weeks of age were subjected to joint injury via destabilization of medial meniscus (DMM) surgery through transection of meniscotibial ligament. Sham surgery (just skin incision) was performed on separate group of mice. […] Pain-like behaviors was evaluated at baseline (1 weeks before the surgery) and 2, 4, 6, 8 and 10 weeks after DMM surgery. • 1. […]

[2] = cited from earlier work

Compound: NC(=O)c1ccc[n+]([C@@H]2O[C@H](CO)[C@@H](O)[C@H]2O)c1 [NR, nicotinamide riboside]
- efficacy on pain, comparison among treatment groups ([1]; NR+PT 5:1, gavage daily): slightly better efficacy
- pain compared to the non-treated controls ([1]; NR+PT 5:1, gavage daily after DMM surgery): significantly less pain
- reduction of conversion of NR to NAM ([2]; germ-free mice after oral intake): 3 fold
- stability of NR in gut and circulation ([2]; mouse, in vivo): rapidly degraded to NAM
